Laboratory results as given in patent US20230139171A1 (SITA Information Networking Computing UK Limited, priority 2019, published 2023).

Columns and labels:
Type in all cases: cell-based
[1] = molecular target: T1, human TLR7 (Homo sapiens, UniProt Q9NYK1); assay: TLR7 inhibition reporter assay (HEK-Blue cells, SEAP reporter, gardiquimod stimulation); details: HEK-Blue cells overexpressing human TLR7, SEAP reporter, gardiquimod 7.5 μM; read-out: TLR7 IC50
T1 construct: host or cells: HEK-Blue cells
T1 sequence (Q9NYK1 27-1049): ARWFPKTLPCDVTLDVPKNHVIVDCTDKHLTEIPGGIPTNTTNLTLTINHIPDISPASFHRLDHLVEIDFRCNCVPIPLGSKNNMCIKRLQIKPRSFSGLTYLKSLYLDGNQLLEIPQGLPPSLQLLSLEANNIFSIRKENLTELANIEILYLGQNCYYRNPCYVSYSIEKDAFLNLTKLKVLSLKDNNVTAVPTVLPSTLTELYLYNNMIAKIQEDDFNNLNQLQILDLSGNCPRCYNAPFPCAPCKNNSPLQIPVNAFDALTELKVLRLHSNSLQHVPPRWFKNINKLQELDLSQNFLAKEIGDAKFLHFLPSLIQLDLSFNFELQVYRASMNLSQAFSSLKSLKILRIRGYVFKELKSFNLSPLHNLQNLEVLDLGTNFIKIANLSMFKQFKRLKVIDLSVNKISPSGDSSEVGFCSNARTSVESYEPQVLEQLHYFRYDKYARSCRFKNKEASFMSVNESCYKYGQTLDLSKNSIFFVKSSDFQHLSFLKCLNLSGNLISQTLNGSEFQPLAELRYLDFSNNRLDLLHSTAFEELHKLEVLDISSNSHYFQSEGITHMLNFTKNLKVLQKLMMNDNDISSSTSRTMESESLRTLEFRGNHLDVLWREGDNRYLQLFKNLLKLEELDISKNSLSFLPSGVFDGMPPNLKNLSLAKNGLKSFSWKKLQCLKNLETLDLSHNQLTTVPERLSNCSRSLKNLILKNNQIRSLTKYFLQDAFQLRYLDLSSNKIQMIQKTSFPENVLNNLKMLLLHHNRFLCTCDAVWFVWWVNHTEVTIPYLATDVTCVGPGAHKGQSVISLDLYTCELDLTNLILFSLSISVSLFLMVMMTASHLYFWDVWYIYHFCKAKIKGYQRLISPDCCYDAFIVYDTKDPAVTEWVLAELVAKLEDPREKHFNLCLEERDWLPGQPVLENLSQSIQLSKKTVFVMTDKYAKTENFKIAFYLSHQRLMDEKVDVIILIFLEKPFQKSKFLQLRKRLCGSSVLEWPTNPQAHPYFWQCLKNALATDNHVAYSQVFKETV
How it was run: (§1)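 Screening used HEK-Blue cells overexpressing one human TLR (7, 8 or 9) and an IFN-β minimal promoter–NF-κB/AP-1 SEAP construct. Stimulation lasted 22 h at 37 °C with receptor-specific agonist: gardiquimod, R848 or ODN2006 at 7.5 μM, 15.9 μM and 5 nM.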

[2] = molecular target: T2, human TLR8 (Homo sapiens, UniProt Q9NR97); assay: TLR8 inhibition reporter assay (HEK-Blue cells, SEAP reporter, R848 stimulation); details: HEK-Blue cells overexpressing human TLR8, SEAP reporter, R848 15.9 μM; read-out: TLR8 IC50
T2 construct: host or cells: HEK-Blue cells
T2 sequence (Q9NR97 27-1041): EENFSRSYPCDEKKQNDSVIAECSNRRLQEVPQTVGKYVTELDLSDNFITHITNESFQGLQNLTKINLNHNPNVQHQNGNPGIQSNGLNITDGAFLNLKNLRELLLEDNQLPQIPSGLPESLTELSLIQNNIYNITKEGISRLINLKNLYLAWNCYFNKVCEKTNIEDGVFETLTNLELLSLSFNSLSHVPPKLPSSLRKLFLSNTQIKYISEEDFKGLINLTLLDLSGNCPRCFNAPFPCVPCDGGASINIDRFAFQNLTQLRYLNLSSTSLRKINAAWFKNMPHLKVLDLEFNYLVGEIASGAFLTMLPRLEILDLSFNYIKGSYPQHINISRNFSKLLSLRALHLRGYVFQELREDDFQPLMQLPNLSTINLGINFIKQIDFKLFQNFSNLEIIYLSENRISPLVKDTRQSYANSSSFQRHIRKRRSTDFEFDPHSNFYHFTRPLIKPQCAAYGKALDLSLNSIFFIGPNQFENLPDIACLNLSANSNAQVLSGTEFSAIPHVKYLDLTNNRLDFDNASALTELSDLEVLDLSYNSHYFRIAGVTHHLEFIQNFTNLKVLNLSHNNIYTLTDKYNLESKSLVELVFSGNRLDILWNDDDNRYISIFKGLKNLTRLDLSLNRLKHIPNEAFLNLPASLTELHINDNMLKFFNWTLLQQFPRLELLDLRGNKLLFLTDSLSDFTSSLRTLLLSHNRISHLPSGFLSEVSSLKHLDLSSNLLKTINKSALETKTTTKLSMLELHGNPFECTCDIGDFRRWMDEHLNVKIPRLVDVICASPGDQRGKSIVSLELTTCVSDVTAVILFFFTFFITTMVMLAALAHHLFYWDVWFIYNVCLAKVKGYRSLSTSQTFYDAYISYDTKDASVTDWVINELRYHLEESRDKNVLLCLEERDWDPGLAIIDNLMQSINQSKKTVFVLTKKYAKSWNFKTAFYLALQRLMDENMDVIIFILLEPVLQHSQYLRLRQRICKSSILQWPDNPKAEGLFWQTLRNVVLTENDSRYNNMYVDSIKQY
How it was run: as §1

[3] = molecular target: T3, human TLR9 (Homo sapiens, UniProt Q9NR96); assay: TLR9 inhibition reporter assay (HEK-Blue cells, SEAP reporter, ODN2006 stimulation); details: HEK-Blue cells overexpressing human TLR9, SEAP reporter, ODN2006 5 nM
T3 construct: host or cells: HEK-Blue cells
T3 sequence (Q9NR96 26-1032): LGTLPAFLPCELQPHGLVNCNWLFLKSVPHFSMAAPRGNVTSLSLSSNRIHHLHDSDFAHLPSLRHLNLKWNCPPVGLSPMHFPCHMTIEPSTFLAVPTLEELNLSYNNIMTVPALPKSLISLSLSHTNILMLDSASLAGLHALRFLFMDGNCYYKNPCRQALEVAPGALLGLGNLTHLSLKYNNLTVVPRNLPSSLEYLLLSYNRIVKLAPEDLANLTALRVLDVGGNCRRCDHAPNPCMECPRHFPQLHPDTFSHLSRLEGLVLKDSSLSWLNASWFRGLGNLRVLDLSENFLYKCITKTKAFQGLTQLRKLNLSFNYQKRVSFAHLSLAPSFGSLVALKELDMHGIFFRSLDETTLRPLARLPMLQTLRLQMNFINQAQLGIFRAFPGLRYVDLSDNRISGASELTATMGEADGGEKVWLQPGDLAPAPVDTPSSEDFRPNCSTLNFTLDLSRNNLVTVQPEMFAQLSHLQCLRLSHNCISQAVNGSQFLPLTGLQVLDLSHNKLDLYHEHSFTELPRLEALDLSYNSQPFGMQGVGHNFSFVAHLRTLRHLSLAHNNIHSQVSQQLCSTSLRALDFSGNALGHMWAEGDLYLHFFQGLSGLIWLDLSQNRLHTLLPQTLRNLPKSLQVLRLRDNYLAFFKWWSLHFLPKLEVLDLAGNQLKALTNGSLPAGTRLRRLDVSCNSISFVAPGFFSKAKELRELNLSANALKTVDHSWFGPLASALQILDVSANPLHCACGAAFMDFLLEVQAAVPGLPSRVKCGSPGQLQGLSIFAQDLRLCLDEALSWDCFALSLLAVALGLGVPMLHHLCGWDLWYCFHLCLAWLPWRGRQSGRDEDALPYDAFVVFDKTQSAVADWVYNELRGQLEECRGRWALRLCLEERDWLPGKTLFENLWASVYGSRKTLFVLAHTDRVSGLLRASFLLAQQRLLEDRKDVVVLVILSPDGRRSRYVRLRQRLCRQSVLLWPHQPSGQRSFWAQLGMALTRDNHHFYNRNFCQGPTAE
How it was run: as §1

SMILES | IC50 [1] [nM] | IC50 [2] [nM] | IC50 [3] [nM]
CNC(=O)CNC1CCC(c2nc3c(C(C)C)c(-c4cn5ncnc5c(C)c4C)[nH]c3s2)CC1 (single isomer, unassigned) [Example 209, 2-((4-(5-(7,8-dimethyl-[1,2,4]triazolo[1,5-a]pyridin-6-yl)-6-isopropyl-4H-pyrrolo[3,2-d]thiazol-2-yl)cyclohexyl)amino)-N-methylacetamide] | 0.32 | 0.14 | 4170
Cc1c(-c2[nH]c3sc(C4CCC(N5CCNC(=O)C5)CC4)nc3c2C(C)C)cn2ncnc2c1C (single isomer, unassigned) [Example 220, 4-(4-(5-(7,8-dimethyl-[1,2,4]triazolo[1,5-a]pyridin-6-yl)-6-isopropyl-4H-pyrrolo[3,2-d]thiazol-2-yl)cyclohexyl) piperazin-2-one] | 1.4 | 4.38 | > 50000
COc1cc(-c2[nH]c3sc(C4CCC(N5CCNC(=O)C5)CC4)nc3c2C(C)C)cn2ncnc12 (single isomer, unassigned) [Example 121, 4-(4-(6-isopropyl-5-(8-methoxy-[1,2,4]triazolo[1,5-a]pyridin-6-yl)-4H-pyrrolo[3,2-d]thiazol-2-yl)cyclohexyl) piperazin-2-one] | 8.51 | 57.3 | > 50000
CC(C)c1c(-c2cn(C)c3ncccc23)[nH]c2sc(C3CCC(NC4COC4)CC3)nc12 (single isomer, unassigned) [Example 179, N-(4-(6-isopropyl-5-(1-methyl-1H-pyrrolo[2,3-b]pyridin-3-yl)-4H-pyrrolo[3,2-d]thiazol-2-yl)cyclohexyl)oxetan-3-amine] | 9.72 | 13.5 | 7260
Cc1cc2ncnn2cc1-c1[nH]c2sc(C3CCC(NC4CCOCC4)CC3)nc2c1C(C)C (single isomer, unassigned) [Example 160, N-(4-(6-isopropyl-5-(7-methyl-[1,2,4]triazolo[1,5-a]pyridin-6-yl)-4H-pyrrolo[3,2-d]thiazol-2-yl)cyclohexyl) tetrahydro-2H-pyran-4-amine] | 0.61 | 0.06 | 5300

More lines, in order of falling IC50 [1], values ahead:

IC50 [1] [nM] | IC50 [2] [nM] | IC50 [3] [nM] | SMILES
36.5 | 9.16 | 29400 | Cc1c(-c2[nH]c3sc(C4CCC(NCC5(S(C)(=O)=O)CC5)CC4)nc3c2C(C)C)cn(C)c(=O)c1C (single isomer, unassigned) [Example 258, 5-(6-isopropyl-2-(4-(((1-(methylsulfonyl)cyclopropyl)methyl)amino)cyclohexyl)-4H-pyrrolo[3,2-d]thiazol-5-yl)-1,3,4-trimethylpyridin-2(1H)-one]
7.99 | 0.93 | 26400 | Cc1c(-c2[nH]c3sc(N4CC5(CN(CC(C)(C)O)C5)C4)nc3c2C(C)C)cn2ncnc2c1C [Example 303, 1-(6-(5-(7,8-dimethyl-[1,2,4]triazolo[1,5-a]pyridin-6-yl)-6-isopropyl-4H-pyrrolo[3,2-d]thiazol-2-yl)-2,6-diazaspiro[3.3]heptan-2-yl)-2-methylpropan-2-ol]
6.89 | 39 | > 50000 | Cc1cc(-c2[nH]c3sc(C4CCN(C(C)C)CC4)nc3c2C(C)C)cn2ncnc12 [Example 21, 6-isopropyl-2-(1-isopropylpiperidin-4-yl)-5-(8-methyl-[1,2,4]triazolo[1,5-a]pyridin-6-yl)-4H-pyrrolo[3,2-d]thiazole]
1.59 | 0.21 | 5920 | COC(C)(C)CNC1CCC(c2nc3c(C(C)C)c(-c4cn5ncnc5c(C)c4C)[nH]c3s2)CC1 (single isomer, unassigned) [Example 186, 4-(5-(7,8-dimethyl-[1,2,4]triazolo[1,5-a]pyridin-6-yl)-6-isopropyl-4H-pyrrolo[3,2-d]thiazol-2-yl)-N-(2-methoxy-2-methylpropyl)cyclohexan-1-amine]
